Test results published in the supplement of paper PMC10307832.

Assays:
Experiment in all cases: relative viability (nuclei count vs DMSO), 5 days (fraction); higher = more cells survive
IPA-3 + Crizotinib = compound: C1=CC=C2C(=C1)C=CC(=C2SSC3=C(C=CC4=CC=CC=C43)O)O [IPA-3] + C[C@@H](Oc1cc(-c2cnn(C3CCNCC3)c2)cnc1N)c1c(Cl)ccc(F)c1Cl [Crizotinib] (partner 1 µM)
Outline: (§1)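 Medians of duplicate plates are given as relative viability. That measure is the nuclei count in treated wells divided by the count in vehicle wells. Counts were taken on 4× images of lung cancer cell lines in 1536-well plates, 5 days after pin-tool dosing the day after seeding with one drug alone or a fixed anchor-drug dose plus five library-drug doses (not always all listed) in √10 steps.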

IPA-3 + Linsitinib = compound: C1=CC=C2C(=C1)C=CC(=C2SSC3=C(C=CC4=CC=CC=C43)O)O [IPA-3] + C[C@]1(O)C[C@@H](c2nc(-c3ccc4ccc(-c5ccccc5)nc4c3)c3c(N)nccn32)C1 [Linsitinib] (partner 1 µM)
Outline: as §1

IPA-3 + Alpelisib = compound: C1=CC=C2C(=C1)C=CC(=C2SSC3=C(C=CC4=CC=CC=C43)O)O [IPA-3] + Cc1nc(NC(=O)N2CCC[C@H]2C(N)=O)sc1-c1ccnc(C(C)(C)C(F)(F)F)c1 [Alpelisib] (partner 2 µM)
Outline: as §1

IPA-3 + Olaparib = compound: C1=CC=C2C(=C1)C=CC(=C2SSC3=C(C=CC4=CC=CC=C43)O)O [IPA-3] + O=C(c1cc(Cc2n[nH]c(=O)c3ccccc23)ccc1F)N1CCN(C(=O)C2CC2)CC1 [Olaparib] (partner 8 µM)
Outline: as §1

Cell Line	relative viability (IPA-3 + Crizotinib; first compound 0.2 µM)	relative viability (IPA-3 + Crizotinib; first compound 0.6325 µM)	relative viability (IPA-3 + Crizotinib; first compound 2 µM)	relative viability (IPA-3 + Crizotinib; first compound 6.325 µM)	relative viability (IPA-3 + Crizotinib; first compound 20 µM)	relative viability (IPA-3 + Linsitinib; first compound 0.2 µM)	relative viability (IPA-3 + Linsitinib; first compound 0.6325 µM)	relative viability (IPA-3 + Linsitinib; first compound 2 µM)	relative viability (IPA-3 + Linsitinib; first compound 6.325 µM)	relative viability (IPA-3 + Linsitinib; first compound 20 µM)	relative viability (IPA-3 + Alpelisib; first compound 0.2 µM)	relative viability (IPA-3 + Alpelisib; first compound 0.6325 µM)	relative viability (IPA-3 + Alpelisib; first compound 2 µM)	relative viability (IPA-3 + Alpelisib; first compound 6.325 µM)	relative viability (IPA-3 + Alpelisib; first compound 20 µM)	relative viability (IPA-3 + Olaparib; first compound 0.2 µM)	relative viability (IPA-3 + Olaparib; first compound 0.6325 µM)	relative viability (IPA-3 + Olaparib; first compound 2 µM)	relative viability (IPA-3 + Olaparib; first compound 6.325 µM)	relative viability (IPA-3 + Olaparib; first compound 20 µM)
LU99A	0.635	0.529	0.615	0.517	0.533	0.563	0.476	0.553	0.517	0.547	0.551	0.451	0.512	0.531	0.528	0.304	0.268	0.291	0.277	0.249
LXF-289	0.828	0.764	0.811	0.829	0.86	1.09	0.961	0.951	1.02	1.11	1.08	0.978	1.03	1.02	1.13	1.22	1	1.09	1.07	1.23
NCI-H23	0.488	0.376	0.599	0.545	0.654	0.613	0.667	0.522	0.603	0.645	0.694	0.577	0.73	0.645	0.805	0.196	0.277	0.379	0.323	0.187
NCI-H322M	1.08	0.933	0.96	0.886	1.1	1.01	0.941	0.987	0.947	0.978	0.867	0.823	0.759	0.0386	0.901	0.91	0.786	0.817	0.776	0.746
NCI-H358	0.454	0.663	0.611	0.595	0.574	0.789	0.687	0.792	0.686	0.882	1.01	0.843	0.791	0.803	1.19	0.649	0.514	0.879	0.505	0.564
NCI-H441	0.859	0.635	0.804	0.659	0.723	0.568	0.568	0.611	0.541	0.515	0.942		0.628	0.668	0.782	0.759	0.507	0.48	0.409	0.432
NCI-H460	1.07	0.871	0.908	0.726	0.62	1.69	0.603	0.968	0.711	0.771	0.711	0.409	0.46	0.479	0.426	0.575	0.393	0.454	0.418	0.447
NCI-H520	0.962	0.803	0.682	0.74	0.919	1.02	0.951	1.03	0.855	0.982	1.08	0.949	0.784	0.847	0.753	0.322	0.278		0.367	0.298
NCI-H596	1.08	0.597	1.08	1.1	1.24	1.3	0.993	1.04	1.09	1.14	0.527	0.562	0.475	0.523	0.558	0.638	0.708	0.773	0.768	0.748
NCI-H647	1.22	1.01	0.991	0.596	0.173	1.52	1.01	1.11	0.641	0.38	1.49	1.06	1.18	0.537	0.11	0.725	0.496	0.59	0.196	0.0974
NCI-H650	0.824	0.548	0.627	0.802	0.909	0.89	0.966	0.877	0.788	1.07	1.43	1.11	1.18	1.04	1.55	0.473	0.391	0.387	0.379	0.381
NCI-H661	1.06	0.847	1.08	0.988	1.03	0.52	0.466	0.712	0.598	0.646	0.693	0.682	0.801	0.765	1.07	0.784	0.705	0.786	0.716	0.738
NCI-H727	0.937	0.765	0.818	0.699	0.792	0.265	0.186	0.271	0.34	0.226	0.629	0.559	0.593	0.676	0.621	0.659	0.946	0.638	0.656	0.698
NCI-H838	1.02	0.788	0.914	0.839	1.27	1.34	0.983	1.1	0.978	1.13	1.25	0.948	1.05	1.06	1.16	0.904	0.723	0.776	0.667	0.735
NCI-H1299	0.974	0.935	0.96	0.928	0.961	1.16	0.99	0.942	0.946	0.999	1.07	1.07	1.02	1.07	1.06	1.02	0.953	0.983	0.963	0.983
NCI-H1355	1.21	0.999	0.778	1.07	1.11	0.942	0.82	0.786	0.742	0.895	0.918	0.782	0.809	0.797	0.802	0.764	0.779	0.836	0.675	0.709

Cell Line	relative viability (IPA-3 + Crizotinib; first compound 0.2 µM)	relative viability (IPA-3 + Crizotinib; first compound 0.6325 µM)	relative viability (IPA-3 + Crizotinib; first compound 2 µM)	relative viability (IPA-3 + Crizotinib; first compound 6.325 µM)	relative viability (IPA-3 + Crizotinib; first compound 20 µM)	relative viability (IPA-3 + Linsitinib; first compound 0.2 µM)	relative viability (IPA-3 + Linsitinib; first compound 0.6325 µM)	relative viability (IPA-3 + Linsitinib; first compound 2 µM)	relative viability (IPA-3 + Linsitinib; first compound 6.325 µM)	relative viability (IPA-3 + Linsitinib; first compound 20 µM)	relative viability (IPA-3 + Alpelisib; first compound 0.2 µM)	relative viability (IPA-3 + Alpelisib; first compound 0.6325 µM)	relative viability (IPA-3 + Alpelisib; first compound 2 µM)	relative viability (IPA-3 + Alpelisib; first compound 6.325 µM)	relative viability (IPA-3 + Alpelisib; first compound 20 µM)	relative viability (IPA-3 + Olaparib; first compound 0.2 µM)	relative viability (IPA-3 + Olaparib; first compound 0.6325 µM)	relative viability (IPA-3 + Olaparib; first compound 2 µM)	relative viability (IPA-3 + Olaparib; first compound 6.325 µM)	relative viability (IPA-3 + Olaparib; first compound 20 µM)
NCI-H1437	1.19	0.896	1.04	0.895	1.34	1.25	0.933	0.988	0.975	1.3	1.32	0.938	1.11	0.974	1.27	0.629	0.597	0.639	0.608	0.565
NCI-H1651	0.962	0.85	0.909	0.88	0.961	1.1		1.07	1.04	1.05	1.01		0.912	0.904	1.15	0.198	0.187	0.189	0.179	0.178
NCI-H1666	1.1	1.04	1.07	1.15	0.799	0.865	0.87	0.857	0.763	0.693	1.09	0.978	1	1.12	0.844	0.854	0.655	0.764	0.749	0.836
NCI-H1703	0.819	0.593	0.757	0.669	0.469	1.1	0.39	0.974	0.787	1.05	0.362	0.289	0.304	0.301	0.397	0.807	0.479	0.38	0.459	0.581
NCI-H1734	0.745	0.648	0.71	0.703	0.698	0.995	0.849	0.884	0.92	1.07	0.733	0.594	0.692	0.677	0.822	0.701	0.586	0.577	0.587	0.513
NCI-H1755	0.971	0.763	0.964	0.808	0.95	1.03	0.94	0.981	0.984	1.04	1.11	0.918	0.908	0.939	1.03	0.879	0.851	0.804	0.849	0.895
NCI-H1792	1.14	1.01	1.01	0.996	1.16	0.626	0.449	0.693	0.518	0.666	0.729	0.668	0.703	0.646	0.794	0.506	0.48		0.395	0.225
NCI-H1915	1.02	0.905	0.923	0.867	0.949	1.12	1.13	1.11	1.08	1.09	1.17	1.05	1.09	1.03	1.07	0.28	0.237	0.269	0.246	0.255
NCI-H1944	1.21	0.995	1.11	1.17	1.07	1.2	1.12	1.23	1.48	1.3	0.836	0.832	0.958	0.942	0.983	0.452	0.409	0.405	0.435	0.395
NCI-H1975	1.21	0.896	0.968	0.883	0.952	1.06	1.01	1.02	1.03	1.09	0.644	0.65	0.628	0.753	0.708	1.03	0.761	0.815	0.705	0.495
NCI-H1993	0.71	0.811	0.885	0.889	0.998	0.707	0.688	0.761	0.782	0.612	0.742	0.6	0.616	0.66	0.594	1.22	1.08	0.995	1.23	1.08
NCI-H2009	1.12	1	1.04	0.915	0.924	1.26	1.17	1.24	1.13	1.18	1.22	1.18	1.24	1.16	1.14	0.662	0.68	0.708	0.635	0.622
NCI-H2023	0.714	0.58	0.809	0.735	0.893	0.85	0.681	0.841	0.735	0.921	0.737	0.636	0.575	0.628	0.768	0.514	0.503	0.624	0.547	0.395
NCI-H2085	0.89	0.912	0.876	0.931	0.995	0.923	0.954	0.856	0.992	1.21	1.07	0.919	0.989	0.949	0.984	0.785	0.759	0.816	0.768	0.883
NCI-H2087	0.955	0.755	0.9	0.791	0.957	1.1	1.05	0.925	0.86	0.995	1.19	0.974	1.21	1.07	0.973	0.685	0.631	0.642	0.474	0.763
NCI-H2126	1.05	0.983	1.05	1.03	1.14	0.74	0.659	0.7	0.768	0.812	0.762	0.73	0.699	0.727	0.928	1.05	0.886	0.877	0.875	1.06
